Measured values as given in ChEMBL document CHEMBL4265931, “Identification of dual Sigma1 receptor modulators/acetylcholinesterase inhibitors with antioxidant and neurotrophic properties, as neuroprotective agents” (Eur J Med Chem, 2018).
Calls of active or inactive are those of the source. No cut-off for these calls is given here.

Key:
[1] = Antioxidant activity assessed as DPPH free radical scavenging after 20 mins by UV-Vis spectrophotometric analysis; format: functional
[2] = Antioxidant activity assessed as DPPH free radical scavenging at 465 uM after 20 mins by UV-Vis spectrophotometric analysis relative to control; format: functional
SH-SY5Y [3] = assay: Neuroprotection against H2O2-induced oxidative stress in human SH-SY5Y cells assessed as reduction in ROS generation at 10 uM preincubated for 3 hrs followed by DCFDA addition for 45 mins and subsequent co-treatment with compound and H2O2 for 24 hrs by fluorescence assay relative to control; format: functional; parameters: scale not given: the % may be the effect or the level left
in vitro [4] = conditions: human
Description: Cytotoxicity against human SH-SY5Y cells assessed as cell viability at 10 uM after 24 hrs by MTS assay relative to control

in vitro [5] = conditions: human; remark: listed apart in the source
in vitro [6] = conditions: human; remark: listed apart in the source
Description: Cytotoxicity against human SH-SY5Y cells assessed as cell viability at 50 uM after 24 hrs by MTS assay relative to control

in vitro [7] = conditions: human; remark: listed apart in the source
Description: Cytotoxicity against human SH-SY5Y cells assessed as cell viability at 10 uM after 48 hrs by MTS assay relative to control

in vitro [8] = conditions: human; remark: listed apart in the source
in vitro [9] = conditions: human; remark: listed apart in the source
Description: Cytotoxicity against human SH-SY5Y cells assessed as cell viability at 50 uM after 48 hrs by MTS assay relative to control

[10] = molecular target: T1, Sigma intracellular receptor 2 (Rattus norvegicus, UniProt Q5U3Y7); assay: Displacement of [3H]-DTG from S2R in rat liver membranes after 120 mins by scintillation counting assay; format: cell membranes, Membrane
T1 sequence (Q5U3Y7 whole entry): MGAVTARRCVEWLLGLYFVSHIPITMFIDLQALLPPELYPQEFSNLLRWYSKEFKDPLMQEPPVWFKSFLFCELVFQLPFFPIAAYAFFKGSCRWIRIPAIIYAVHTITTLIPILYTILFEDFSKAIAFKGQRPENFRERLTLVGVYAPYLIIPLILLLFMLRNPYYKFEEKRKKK

[11] = Selectivity ratio of Ki for S2R in rat liver membranes to Ki for S1R in guinea pig brain cortex membranes; format: cell membranes
Acetylcholinesterase = Acetylcholinesterase (Electrophorus electricus, UniProt O42275); assay: Inhibition of electric eel AChE using acetylthiocholine iodide as substrate preincubated for 5 mins followed by substrate addition and measured after 2 mins by Ellman's method
Sequence of Acetylcholinesterase (O42275 whole entry): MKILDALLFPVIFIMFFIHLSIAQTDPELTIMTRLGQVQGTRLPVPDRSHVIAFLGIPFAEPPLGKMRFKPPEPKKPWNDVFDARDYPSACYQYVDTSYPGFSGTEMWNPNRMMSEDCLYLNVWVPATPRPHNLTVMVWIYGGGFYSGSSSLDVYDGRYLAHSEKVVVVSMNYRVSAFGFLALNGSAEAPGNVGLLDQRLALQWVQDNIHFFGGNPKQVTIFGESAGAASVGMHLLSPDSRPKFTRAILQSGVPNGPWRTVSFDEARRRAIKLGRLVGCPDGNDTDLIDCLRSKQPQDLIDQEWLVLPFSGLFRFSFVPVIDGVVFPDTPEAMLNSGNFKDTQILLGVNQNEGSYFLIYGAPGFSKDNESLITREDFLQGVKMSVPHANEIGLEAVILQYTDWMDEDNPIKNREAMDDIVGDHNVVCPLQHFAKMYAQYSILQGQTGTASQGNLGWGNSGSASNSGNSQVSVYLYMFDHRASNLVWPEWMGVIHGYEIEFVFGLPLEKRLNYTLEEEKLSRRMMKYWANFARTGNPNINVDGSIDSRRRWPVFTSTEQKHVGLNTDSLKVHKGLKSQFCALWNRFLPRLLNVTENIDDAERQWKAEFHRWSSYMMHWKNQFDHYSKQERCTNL

[12] = Displacement of [3H]-ifenprodil from GluN1a/GluN2B (unknown origin) expressed in mouse L(tk-) cell membranes after 120 mins by scintillation counting analysis; parameters: species or system Homo sapiens
SH-SY5Y [13] = assay: Cytotoxicity against human SH-SY5Y cells assessed as reduction in cell viability after 24 hrs by MTS assay; format: cell-based; conditions: for IC50: Homo sapiens, SH-SY5Y; for Activity: human, sh-sy5y
SH-SY5Y [14] = assay: Cytotoxicity against human SH-SY5Y cells assessed as reduction in cell viability after 48 hrs by MTS assay; format: cell-based; conditions: for IC50: Homo sapiens, SH-SY5Y; for Activity: human, sh-sy5y
[15] = Neurotrophic activity in Sprague-Dawley rat embryo DRG neuron assessed as increase in neurite length at 2.5 uM after 24 hrs relative to control; format: functional
[16] = Neurotoxicity in Sprague-Dawley rat embryo DRG neuron at 2.5 to 5 uM after 24 to 48 hrs; format: toxicity
[17] = Neurotoxicity in Sprague-Dawley rat embryo DRG neuron at 10 uM after 24 hrs; format: toxicity
[18] = Neurotoxicity in Sprague-Dawley rat embryo DRG neuron at 10 uM after 48 hrs; format: toxicity
[19] = molecular target: Sigma non-opioid intracellular receptor 1 (Cavia porcellus, UniProt Q60492); parameters: species or system Hartley
Sequence of Sigma non-opioid intracellular receptor 1 (Q60492 whole entry): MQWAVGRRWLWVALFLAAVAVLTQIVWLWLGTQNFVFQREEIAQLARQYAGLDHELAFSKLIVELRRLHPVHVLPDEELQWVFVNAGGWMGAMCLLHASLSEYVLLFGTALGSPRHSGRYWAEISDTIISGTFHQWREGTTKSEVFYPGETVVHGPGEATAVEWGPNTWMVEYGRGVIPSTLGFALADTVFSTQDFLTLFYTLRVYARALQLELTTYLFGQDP
Description: Displacement of [3H]DTG from S1R in P2 fraction of Hartley guinea pig whole brain after 90 mins by liquid scintillation counting method

[20] = Neurotrophic activity in Sprague-Dawley rat embryo DRG neuron assessed as increase in neurite length at 2.5 to 5 uM after 24 to 48 hrs relative to control; format: functional

| Compound | IC50 [1] | Activity [2] | Activity (SH-SY5Y [3]) | viability at 24 h, 10 µM (in vitro [4]; SH-SY5Y cells) | viability at 24 h, 25 µM (in vitro [5]; SH-SY5Y cells) | viability at 24 h, 50 µM (in vitro [6]; SH-SY5Y cells) | viability at 48 h, 10 µM (in vitro [7]; SH-SY5Y cells) | viability at 48 h, 25 µM (in vitro [8]; SH-SY5Y cells) | viability at 48 h, 50 µM (in vitro [9]; SH-SY5Y cells) | Ki [10] | Ratio Ki [11] | IC50 (Acetylcholinesterase) | Ki [12] | IC50 (SH-SY5Y [13]) | Activity (SH-SY5Y [13]) | IC50 (SH-SY5Y [14]) | Activity (SH-SY5Y [14]) | Activity [16] | Activity [17] | Activity [18] | further results |
| --- | --- | --- | --- | --- | --- | --- | --- | --- | --- | --- | --- | --- | --- | --- | --- | --- | --- | --- | --- | --- | --- |
| COc1cc(/C=C/C(=O)CC(=O)/C=C/c2ccc(O)c(OC)c2)ccc1O [CURCUMIN] | 13.5 µM | 71.3% | 0% | 100% | 76.5% | 71.5% | 100% | 58.7% | 59% |  |  |  |  |  |  |  |  |  |  |  |  |
| Cl.O=C(CN1CCC(Cc2ccccc2)CC1)c1ccc2ccccc2c1 | 86.8 µM | 65.7% | <=43% | 107% | 104% | 81.3% | 89.5% | 77.6% | 48.4% | 0.802 µM | 30 | 9.13 µM | 0.139 µM | 52 µM | Dose-dependent effect | 57 µM | Dose-dependent effect | Non-Toxic | Toxic | Non-Toxic | Activity [15]: 15% |
| COc1cc2c(cc1OC)C(=O)C(CC1CCN(Cc3ccccc3)CC1)C2 (centres undefined) [DONEPEZIL] |  | 4.4% | inactive |  |  |  |  |  |  |  |  |  |  |  |  |  |  |  |  |  | Ki [19]: 0.0146 µM; viability at 24 h, 10 µM (in vitro [4]; sh-sy5y): 100%; viability at 24 h, 25 µM (in vitro [5]; sh-sy5y): 99.3%; viability at 24 h, 50 µM (in vitro [6]; sh-sy5y): 94.7%; viability at 48 h, 10 µM (in vitro [7]; sh-sy5y): 94.3%; viability at 48 h, 25 µM (in vitro [8]; sh-sy5y): 80.4%; viability at 48 h, 50 µM (in vitro [9]; sh-sy5y): 64.4% |
| Cl.O=C(CCN1CCCCC1)c1ccc(-c2ccccc2)cc1 |  | 15.5% | 18% | 104% | 95.4% | 64% | 95.9% | 49.3% | 44.7% | 0.462 µM | 30.8 | 13.1 µM | > 1 µM | 37 µM | Dose-dependent effect | 22 µM | Dose-dependent effect | Non-Toxic | Toxic | Non-Toxic | Activity [20]: 20% |
